Values of other authors as cited in patent publication US9365559B2, “Crystal form of Dabrafenib and preparation method of use thereof” (Hangzhou Pushai Pharmaceutical Technology Co., LTD., priority 2013, dated 2016).

Legend:
BRAFV600E-mutan melanoma = details: patients with BRAFV600E-mutan melanoma; cited from earlier work
[1] = test system: one or more Raf-family kinases; details: disclosed in WO2009/137391A2 and U.S. Pat. No. 7,994,185B2; cited from earlier work

In the case of `CC(C)(C)c1nc(-c2cccc(NS(=O)(=O)c3c(F)cccc3F)c2F)c(-c2ccnc(N)n2)s1` [Dabrafenib, N-[3-[5-(2-aminopyrimidin-4-yl)-2-(tert-butyl)thiazo-4-lyl]-2-fluorophenyl]-2,6-difluorobenzenesulfonamide], the safety profile (BRAFV600E-mutan melanoma) is listed as “acceptable safety profile”, the therapeutical activity (BRAFV600E-mutan melanoma) is listed as “has therapeutical activities” and the “inhibitory effect on Raf-family kinases” value [1] is listed as “has the inhibitory effection”.
